Values joined by “and” are separate entries in the source; they are usually repeats but may differ in a detail not shown here. Equal entries are not always repeated. Each block holds one substance with its values, some of them ahead of it.
How the values were obtained:
U937 cells = assay: Flow cytometry, Siglec-Fc pre-complexed with Strep-Tactin, streptavidin or anti-human IgG1; type: cell-based; conditions: for Binding: Suppl Fig 4b
Experimental: (§1) Strep-Tactin-AF647 (0.55 μg/mL, 0.57 pmol), streptavidin (Biolegend), or anti-human igG1 (Biolegend) was added to Siglec supernatant (50 μL) or purified Siglec and allowed to sit at 4 °C for 15 min. After, the pre-complexed solution was added to cells in a 96-well U-bottom plate for 30 min at 4 °C. After, 200 μL of flow buffer (HBSS, 0.1% BSA, 5 mM EDTA) was added and the plate was spun down at 300 rcf for 5 min. The cells were resuspended in 200 μL of flow buffer and processed through the flow cytometer.
(§2) Flow cytometry was performed on a BD LSRFortessa™ X-20 cell analyzer using BD FACSDiva Software Version 8.0.1 and data was processed using FlowJo LLC. Version 9.9.6 and Graphpad Prism 8. The live, single cell populations were gated out with two gates to obtain the median fluorescence intensity (MFI), which indicates binding of the Siglec-Fc-secondary complex to the cell surface. Control cells that were incubated with Strep-Tactin-AF647 (0.55 μg/mL, 0.57 pmol) was used to determine the baseline fluorescence. Number of cells (# cells) plotted indicates percentage of max (% max).

[1] = test system: neutrophils (CD15+), human splenocytes; assay: Siglec-Fc (CD22-Fc V1/V2, with or without Fc receptor block) binding to splenocytes, flow cytometry; type: cell-based; conditions: Suppl Fig 12; three replicate columns
Experimental: (§3) For human splenocytes, the sample was homogenized in media through a 40 µm filter (Corning) under sterile conditions. Samples were centrifuged at 300 rcf for 5 min. The resulting pellet from the spleen sample and whole human blood were treated with RBC lysis buffer (7 min) and centrifuged at 300 rcf and the RBC lysis was repeated twice more until no RBC remained in the pellet. Samples were treated with human Fc-receptor blocking agent (TruStain FX, Biolegend) in flow buffer (HBSS, 0.1% BSA, 5 mM EDTA). […]
as §2, with “Version 9.9.6 and Graphpad Prism 8.” left out, “Number of cells (# cells) plotted indicates percentage of max (% max).” left out

[2] = test system: T-cells (CD3+), human splenocytes; assay: Siglec-Fc binding to splenocytes, flow cytometry; type: cell-based; conditions: Suppl Fig 12; three replicate columns
Experimental: (§4) For human splenocytes, the sample was homogenized in media through a 40 µm filter (Corning) under sterile conditions. Samples were centrifuged at 300 rcf for 5 min. The resulting pellet from the spleen sample and whole human blood were treated with RBC lysis buffer (7 min) and centrifuged at 300 rcf and the RBC lysis was repeated twice more until no RBC remained in the pellet. Samples were treated with human Fc-receptor blocking agent (TruStain FX, Biolegend) in flow buffer (HBSS, 0.1% BSA, 5 mM EDTA). For analysis, the following cocktail was used: hSig8 (PerCP/Cy5.5, clone 7C9, Biolegend cat. no. 347108, 1:200), hCD123 (PE/Cy7, clone 6H6, Biolegend cat. no. 306010, 1:200), hCD19 (PE, clone SJ25C1, Biolegend cat. no. 363004, 1:200), hCD3 (FITC, BD Pharmingen cat. no. 555332, 1:50), hCD14 (BV605, clone M5E2, BD Horizon cat. no. 564056, 1:200), hCD15 (BUV395, clone HI98, BD Horizon cat. no. 563872, 1:200), hCD56 (BV510, clone NCAM16.2, BD Horizon cat. no. 563041, 1:200). For human peripheral blood samples, we additionally used hHLA-DR (APC-Cy7, clone L243, Biolegend cat. no. 307618, 1:200). Pre-complexed Siglec-Fc/Strep-Tactin-AF647 (described above) was added to the antibody cocktail, added to cells, and allowed to stain at 4 °C for 45 min. The cells were then centrifuged at 300 rcf for 5 min and resuspended in flow buffer containing 1 µg/mL propidium iodide prior to analysis by flow cytometry.
as §2

[3] = test system: monocytes (CD14+), human splenocytes; assay: Siglec-Fc binding to splenocytes, flow cytometry; type: cell-based; conditions: Suppl Fig 12; three replicate columns
Experimental: as §4, §2

[4] = test system: B-cells (CD19+), human splenocytes; assay: Siglec-Fc binding to splenocytes, flow cytometry; type: cell-based; conditions: Suppl Fig 12; three replicate columns
Experimental: as §4, §2

[5] = test system: NK cells (CD56+), human splenocytes; assay: Siglec-Fc binding to splenocytes, flow cytometry; type: cell-based; conditions: Suppl Fig 12; three replicate columns
Experimental: as §4, §2

B-cells (CD19+) = assay: Siglec ligands on peripheral blood immune cells, flow cytometry; type: cell-based, human; conditions: replicate values
Experimental: as §4, §2

pDCs (CD123high/HLA-DR+) = assay: as above; type: cell-based, human; conditions: pDC; replicate values
Experimental: as §4, §2

cDCs (CD123dim/HLA-DR+) = assay: as above; type: cell-based, human; conditions: cDC; replicate values
Experimental: as §4, §2

NK cells (CD56+) = assay: as above; type: cell-based, human; conditions: replicate values
Experimental: as §4, §2

neutrophils (CD15+) = assay: as above; type: cell-based, human; conditions: replicate values
Experimental: as §4, §2

T-cells (CD3+) = assay: as above; type: cell-based, human; conditions: replicate values
Experimental: as §4, §2

basophils (CCR3+) = assay: as above; type: cell-based, human; parameters: key: median fluorescence intensity (MFI) of Siglec-Fc complex binding; conditions: replicate values
Experimental: (§5) Siglec supernatant (50 μL) or purified Siglec was incubated with cells in a 96-well U-bottom plate for 30 min at 4 °C. Following the incubation, 200 μL of flow buffer (HBSS, 0.1% BSA, 5 mM EDTA) was added and the plate was spun down at 300 rcf for 5 min. Strep-Tactin-AF647 (0.55 μg/mL, 50 μL, 0.57 pmol), streptavidin (Biolegend), or anti-human IgG1 (Biolegend) was added to the cells and incubated for 30 min at 4 °C. After, 200 μL of flow buffer (HBSS, 0.1% BSA, 5 mM EDTA) was added and the plate was spun down at 300 rcf for 5 min. The cells were resuspended in 200 μL of flow buffer and processed through the flow cytometer.
as §1
as §3, with “pellet.” for “pellet. Samples were treated with human Fc-receptor blocking agent (TruStain FX, Biolegend) in flow buffer (HBSS, 0.1% BSA, 5 mM EDTA).”
as §2, with “Version 9.9.6 and Graphpad Prism 8.” left out, “Number of cells (# cells) plotted indicates percentage of max (% max).” left out

monocytes (CD14+) = assay: as above; type: cell-based, human; parameters: key: median fluorescence intensity (MFI) of Siglec-Fc complex binding; conditions: replicate values
Experimental: as §5, §1
as §3, with “pellet.” for “pellet. Samples were treated with human Fc-receptor blocking agent (TruStain FX, Biolegend) in flow buffer (HBSS, 0.1% BSA, 5 mM EDTA).”
as §2, with “Version 9.9.6 and Graphpad Prism 8.” left out, “Number of cells (# cells) plotted indicates percentage of max (% max).” left out

eosinophils (Siglec-8+) = assay: as above; type: cell-based, human; parameters: key: median fluorescence intensity (MFI) of Siglec-Fc complex binding; conditions: replicate values
Experimental: as §5, §1
as §3, with “pellet.” for “pellet. Samples were treated with human Fc-receptor blocking agent (TruStain FX, Biolegend) in flow buffer (HBSS, 0.1% BSA, 5 mM EDTA).”
as §2, with “Version 9.9.6 and Graphpad Prism 8.” left out, “Number of cells (# cells) plotted indicates percentage of max (% max).” left out

HEK293T cells = assay: Flow cytometry, pre-complexed Siglec-Fc binding; type: cell-based
Experimental: as §1, §2

HuH7 cells = assay: Flow cytometry, pre-complexed Siglec-Fc binding; type: cell-based; conditions: Strep-Tactin-AF647, replicates
Experimental: as §1, §2

A549 cells = assay: Flow cytometry, pre-complexed Siglec-Fc binding; type: cell-based; conditions: Strep-Tactin-AF647, replicates
Experimental: as §1, §2

Jurkat cells = assay: Flow cytometry, pre-complexed Siglec-Fc binding; type: cell-based; conditions: Strep-Tactin-AF647, replicates
Experimental: as §1, §2

K562 cells = assay: Flow cytometry, pre-complexed Siglec-Fc binding; type: cell-based; conditions: Strep-Tactin-AF647, replicates
Experimental: as §1, §2

MDA-MB-468 = assay: Flow cytometry, pre-complexed Siglec-Fc binding to breast cancer cell line; type: cell-based; conditions: Strep-Tactin-AF647, replicates
Experimental: as §1, §2

ZR-75-1 = assay: as above; type: cell-based; conditions: Strep-Tactin-AF647, replicates
Experimental: as §1, §2

HS578T = assay: as above; type: cell-based; conditions: Strep-Tactin-AF647, replicates
Experimental: as §1, §2

BT549 = assay: as above; type: cell-based; conditions: Strep-Tactin-AF647, replicates
Experimental: as §1, §2

MCF7 = assay: as above; type: cell-based; conditions: Strep-Tactin-AF647, replicates
Experimental: as §1, §2

MDA-MB-231 = assay: as above; type: cell-based; conditions: Strep-Tactin-AF647, replicates
Experimental: as §1, §2

T47D = assay: as above; type: cell-based; conditions: Strep-Tactin-AF647, replicates
Experimental: as §1, §2

[6] = test system: K562 cells treated with Neuraminidase A; assay: Pre-complexed Siglec-Fc binding with or without Neu-A pretreatment; type: cell-based; conditions: Suppl Fig 7a
Experimental: as §1, §2
K562 cells were incubated with Neuraminidase A at 37 °C for 30 min with shaking every 5 min. Cells were then added to a 96-well U-bottom plate and incubated with pre-complexed Strep-Tactin-AF647/Siglec, as described above.

CMAS−/− HEK293 cells = assay: Pre-complexed Siglec-Fc binding to sialic acid-deficient cells; type: cell-based; conditions: Suppl Fig 7b; HEK CMASKO
Experimental: Custom crRNA (IDT) was designed to target human CMAS ([…]) and ST6Gal1 ([…]). Cells were seeded at 500,000 cells per well 1 day prior to transfection in a 6-well tissue culture plate. For one well of a 6-well plate, 20 pmol of Cas9 nuclease (IDT), 20 pmol of ATTO-550 labeled crRNA:tracrRNA (IDT) duplex, 8 μL Cas9 Plus reagent (IDT), and 16 μL CRISPRMAX reagent (Thermo Fisher) in 600 μL Opti-MEM medium (Gibco). One day after transfection, cells were removed from the plate by trypsin digestion, washed, resuspended in 300 μl of cell sorting medium (HBSS, 10% FBS, 1 mM EDTA), and stored on ice until sorting. Cells were sorted within the University of Alberta Flow Cytometry Core. The top 5% bright dyes stained with ATTO-550 were sorted into three 96-well plates containing regular culture medium at one cell per well. […]
as §2, with “Version 9.9.6 and Graphpad Prism 8.” left out, “Number of cells (# cells) plotted indicates percentage of max (% max).” left out

Strep-tag II = conditions: cited from earlier work

Substance: Sig-1-Fc R116A
Binding (U937 cells; Amount of Siglec 3.75 ug/mL): 54.5 and 53.7 and 57.1
Binding (U937 cells; Amount of Siglec 7.5 ug/mL): 57.9 and 62.1 and 64.6
Binding (U937 cells; Amount of Siglec 15 ug/mL): 67.9 and 72.2 and 70.4
Binding (U937 cells; Amount of Siglec 30 ug/mL): 133 and 128 and 148
Binding (U937 cells; Amount of Siglec 60 ug/mL): 157 and 165 and 148

Binding, Monocytes [3]: 15.5 and 9.76 and 8.04
Substance: Sig-8 R128A: Siglec-8-Fc essential arginine mutant
Binding, Neutrophils [1]: -13.8 and -28.2 and -29.9
Binding, T-cells [2]: 6.21 and 2.36 and 4.73
Binding, B-cells [4]: 3.45 and -1.72 and -2.87
Binding, NK [5]: 4.43 and 1.18 and 2.36
binding of pre-complexed Siglec-Fc (MFI) (U937 cells; U937, Strep-Tactin-AF647, replicates, Fig. 2): 94.6 and 90.4 and 92.5
Siglec-Fc binding (Figure 3d) (B-cells (CD19+)): 41.1 and 12.5 and 42.1
Siglec-Fc binding (Figure 3d) (pDCs (CD123high/HLA-DR+)): 74.5 and 11.6 and 48.8
Siglec-Fc binding (Figure 3d) (cDCs (CD123dim/HLA-DR+)): 60.4 and -24.4 and 18
Siglec-Fc binding (Figure 3d) (NK cells (CD56+)): 32.1 and 46.5 and 41.2
Siglec-Fc binding (Figure 3d) (neutrophils (CD15+)): 38.5 and 12.4 and 5.83
Siglec-Fc binding (Figure 3d) (T-cells (CD3+)): 20.5 and 10.3 and 64.2
Siglec-Fc binding (Figure 3d) (basophils (CCR3+)): 38.5 and 41.6 and 74.4
Siglec-Fc binding (Figure 3d) (monocytes (CD14+)): 97.7 and 42.1 and 63.5
Siglec-Fc binding (Figure 3d) (eosinophils (Siglec-8+)): 25.7 and 26.1 and 45
binding of pre-complexed Siglec-Fc (MFI) (HEK293T cells; HEK, Strep-Tactin-AF647, replicates): 70.7 and 73.5 (2×)
binding of pre-complexed Siglec-Fc (MFI) (HuH7 cells): 92.2 and 88.8 and 95.7
binding of pre-complexed Siglec-Fc (MFI) (A549 cells): 123 and 130 and 127
binding of pre-complexed Siglec-Fc (MFI) (Jurkat cells): 80.5 and 89.6 and 88.9
binding of pre-complexed Siglec-Fc (MFI) (K562 cells): 133 and 120 and 116
binding of pre-complexed Siglec-Fc (MFI) (MDA-MB-468): 125 and 126 and 131
binding of pre-complexed Siglec-Fc (MFI) (ZR-75-1): 269 and 266 and 255
binding of pre-complexed Siglec-Fc (MFI) (HS578T): 127 and 117 and 114
binding of pre-complexed Siglec-Fc (MFI) (BT549): 101 and 105 (2×)
binding of pre-complexed Siglec-Fc (MFI) (MCF7): 129 (2×) and 126
binding of pre-complexed Siglec-Fc (MFI) (MDA-MB-231): 154 (2×) and 157
binding of pre-complexed Siglec-Fc (MFI) (T47D): 86.1 and 97.6 and 94.1

Substance: Siglec-2
Binding ([6]; +Neuraminidase): 88.8 and 91.5 and 90.6
Binding ([6]; -Neuraminidase): 2128 and 1497 and 1576
Binding (CMAS−/− HEK293 cells): 86 and 84.2
Binding (HEK293T cells; Suppl Fig 7b, HEK WT): 631 and 654 and 721

Substance: Streptavidin: protein binding Strep-tag II with intermediate affinity [reference compound]
Siglec-1-Fc Binding (U937 cells; Suppl Fig 4a, Streptavidin alone): 150 and 128 and 134
Kd (Strep-tag II): 72 µM
